Assay results: US20100062939A1, “Herbicide/Safener Combination Comprising Dimethoxytriazinyl-Substituted Difluoromethanesulfonylanilides” (BAYER CROPSCIENCE AG, priority 2008, published 2010)

Tests used:
Format in all cases: in vivo
[1] = tested on: barley (cultivar: Adonis); assay: Crop plant compatibility, post-emergence, barley; conditions: 17 DAT, individual compound, no safener
Method: (§1) Seeds of crop plants were placed in sandy loam and then covered with soil. The pots were placed in a greenhouse and kept under good growth conditions for the crop plants. Two weeks after sowing, the test plants were treated at the 1-3 leaf stage. The active compounds of components (A) and (B), formulated in the form of wettable powders, were then sprayed as aqueous suspensions at various dosages onto the green parts of the plants, using an application rate of 300 l of water/ha (converted).
(§2) The visual scoring of the herbicidal effects in the combination with or without safener was carried out after the number of days stated in the tables (DAT=days after treatment). Scoring was carried out in percent in comparison to the untreated control plants (herbicidal activity in %). 0%=no herbicidal activity, 100%=complete herbicidal activity=complete kill.
(§3) The safener action was calculated by comparing the herbicidal activity in % of the herbicide combination without (individual compound) and with safener (combination). The difference of the herbicidal activity in % between the individual compound and the combination was then calculated in percent (safener action in %): 0%=no improvement by addition of safener, 100%=complete improvement by addition of safener=maximum crop plant compatibility.

corn (cultivar: Oldham) = assay: Crop plant compatibility, post-emergence, corn; conditions: 17 DAT, individual compound, component A 20 g of ai/ha, no safener
Method: as §1, §2, §3

[2] = tested on: rice (cultivar: Rice Ballila); assay: Crop plant compatibility, post-emergence, rice; conditions: individual compound, no safener
Method: as §1, §2, §3

wheat (cultivar: Triso) = assay: Crop plant compatibility, post-emergence, wheat; conditions: individual compound, no safener
Method: as §1, §2, §3

[3] = 17 DAT, component A 20 g of ai/ha

COc1nc(OC)nc(C(O)c2cccc(F)c2NS(=O)(=O)C(F)F)n1 (centres unmarked) [compound (A-3)]
Herbicidal activity in % ([1]; component A 6.7 g of ai/ha): 10% | Herbicidal activity in % ([1]; component A 20 g of ai/ha): 20% | Herbicidal activity in % (corn (cultivar: Oldham)): 30% | Herbicidal activity in % ([2]; 10 DAT, component A 2.2 g of ai/ha): 30% | Herbicidal activity in % [2, 3]: 50% | Herbicidal activity in % (wheat (cultivar: Triso); 10 DAT, component A 6.7 g of ai/ha): 5% | Herbicidal activity in % (wheat (cultivar: Triso); 17 DAT, component A 2.2 g of ai/ha): 8% | Herbicidal activity in % (wheat (cultivar: Triso); [3]): 20%
